Laboratory results from US12258370B2, “Betulastatin compounds” (Arizona Board of Regents on behalf of Arizona State …, priority 2017, dated 2025).
In brackets after ≈: the same amount, converted by molar mass.

How the values were obtained:
Format in all cases: cell-based
BXPC-3 (pancreas) = experiment: Sulforhodamine B human cancer cell growth inhibition, BXPC-3; conditions: BXPC-3 pancreas cell line, compounds in DMSO, 48 h; for IC50: Homo sapiens, read-out: Gl50 Growth Inhibition, XPC-3
Protocol: (§1) Cancer Cell Line Procedures. Inhibition of human cancer cell growth was assessed using the standard sulforhodamine B assay of the U.S. National Cancer Institute, as previously described.^15 To begin, cells in a 5% fetal bovine serum/RPMI1640 medium were inoculated in 96-well plates and incubated for 24 h. Next, serial dilutions of the compounds were added. After 48 h, the plates were fixed with trichloroacetic acid, stained with sulforhodamine B, and read with an automated microplate reader.

MCF-7 (breast) = experiment: Sulforhodamine B human cancer cell growth inhibition, MCF-7; conditions: compounds in DMSO, 48 h; for Gl50 Growth Inhibition, MCF-7: MCF-7 breast cell line; for IC50: Homo sapiens, MCF7, MCF-7 breast cell line, read-out: Gl50 Growth Inhibition, MCF-7
Protocol: as §1

SF-268 (CNS) = experiment: Sulforhodamine B human cancer cell growth inhibition, SF-268; conditions: SF-268 CNS cell line, compounds in DMSO, 48 h; for IC50: Homo sapiens, read-out: Gl50 Growth Inhibition, SF-268
Protocol: as §1

NCI-H460 (lung) = experiment: Sulforhodamine B human cancer cell growth inhibition, NCI-H460; conditions: NCI-H460 lung cell line, compounds in DMSO, 48 h; for IC50: Homo sapiens, read-out: Gl50 Growth Inhibition, NCI-H460
Protocol: as §1

KM20L2 (colon) = experiment: Sulforhodamine B human cancer cell growth inhibition, KM20L2; conditions: compounds in DMSO, 48 h; for Gl50 Growth Inhibition, KM20L2: KM20L2 colon cell line; for IC50: Homo sapiens, KM-20L2, KM20L2 colon cell line, read-out: Gl50 Growth Inhibition, KM20L2
Protocol: as §1

DU-145 (prostate) = experiment: Sulforhodamine B human cancer cell growth inhibition, DU-145; conditions: DU-145 prostate cell line, compounds in DMSO, 48 h; for IC50: Homo sapiens, read-out: Gl50 Growth Inhibition, DU-145
Protocol: as §1

Compound | Gl50 Growth Inhibition, XPC-3 (BXPC-3 (pancreas)) [µg/mL] | Gl50 Growth Inhibition, MCF-7 (MCF-7 (breast)) [µg/mL] | Gl50 Growth Inhibition, SF-268 (SF-268 (CNS)) [µg/mL] | Gl50 Growth Inhibition, NCI-H460 (NCI-H460 (lung)) [µg/mL] | Gl50 Growth Inhibition, KM20L2 (KM20L2 (colon)) [µg/mL] | Gl50 Growth Inhibition, DU-145 (DU-145 (prostate)) [µg/mL] | IC50 (BXPC-3 (pancreas)) [µg/mL] | IC50 (MCF-7 (breast)) [µg/mL] | IC50 (SF-268 (CNS)) [µg/mL] | IC50 (NCI-H460 (lung)) [µg/mL] | IC50 (KM20L2 (colon)) [µg/mL] | IC50 (DU-145 (prostate)) [µg/mL]
3-O-Acetyl-28-amido-allobetulin-28-N-1′-ethyldiamine-N-2′-Dap-Dil-Val-Dov [Compound 18a] | 3.8 | 3.6 | 1.3 | 5.1 | 3.1 | 0.39 |  |  |  |  |  | 
C=C(C)[C@@H]1CC[C@]2(COC(C)=O)CC[C@]3(C)[C@H](CC[C@@H]4[C@@]5(C)CCC(N)C(C)(C)[C@@H]5CC[C@]43C)[C@@H]12 (single isomer, unassigned) [Compound 9a, 3-α/β-Amino-28-O-acetyl-betulin] | >10 | 2.1 | 1.2 | 6.0 | 3.0 | 1.3 |  |  |  |  |  | 
C=C(C)[C@@H]1CC[C@]2(CO)CC[C@]3(C)[C@H](CC[C@@H]4[C@@]5(C)CC[C@H](O)C(C)(C)[C@@H]5CC[C@]43C)[C@@H]12 [Betulin, betulin, reference compound] |  |  |  |  |  |  | 9.3 (≈ 21 µM) | > 10 | > 10 | 7.4 (≈ 16.7 µM) | > 10 | > 10
C=C(C)[C@@H]1CC[C@]2(C=O)CC[C@]3(C)[C@H](CC[C@@H]4[C@@]5(C)CC[C@H](OC(C)=O)C(C)(C)[C@@H]5CC[C@]43C)[C@@H]12 [Compound 1, 3-O-Acetyl-28-betulinal] | >10 | >10 | >10 | >10 | >10 | >10 |  |  |  |  |  | 
C=C(C)[C@@H]1CC[C@]2(/C=N/O)CC[C@]3(C)[C@H](CC[C@@H]4[C@@]5(C)CC[C@H](OC(C)=O)C(C)(C)[C@@H]5CC[C@]43C)[C@@H]12 [Compound 2, 3-O-Acetyl-28-oxime-betulin] | 15.5 | 4.5 | 13.2 | 4.1 | 5.1 | >10 |  |  |  |  |  | 
C=C(C)[C@@H]1CC[C@]2(CN)CC[C@]3(C)C(CCC4[C@@]5(C)CC[C@H](OC(C)=O)C(C)(C)C5CC[C@]43C)C12 (stereo partly drawn) [Compound 3, 3-O-Acetyl-28-aminobetulin] |  |  |  |  |  |  | 1.9 (≈ 3.93 µM) | 1.8 (≈ 3.72 µM) | 1.8 (≈ 3.72 µM) | 1.9 (≈ 3.93 µM) | 1.9 (≈ 3.93 µM) | 1.8 (≈ 3.72 µM)
C=C(C)[C@@H]1CC[C@]2(CNC(=O)[C@H](C)[C@@H](OC)C3CCCN3C(=O)OC(C)(C)C)CC[C@]3(C)C(CCC4[C@@]5(C)CC[C@H](OC(C)=O)C(C)(C)C5CC[C@]43C)C12 (stereo partly drawn) [Compound 5, 3-O-Acetyl-28-amino-N-(Boc-dap)-betulin] |  |  |  |  |  |  | > 10 | > 10 | > 10 | > 10 | > 10 | > 10
C=C(C)[C@@H]1CC[C@]2(CNC(=O)[C@H](C)[C@@H](OC)[C@@H]3CCCN3C(=O)C[C@@H](OC)[C@H]([C@@H](C)CC)N(C)C(=O)[C@@H](NC(=O)[C@H](C(C)C)N(C)C)C(C)C)CC[C@]3(C)[C@H](CC[C@@H]4[C@@]5(C)CC[C@H](OC(C)=O)C(C)(C)[C@@H]5CC[C@]43C)[C@@H]12 [Compound 7a, 3-O-Acetyl-28-amino-N-(Dap-Dil-Val-Dov)-betulin] | 4.1 | 3.6 | 2.6 | 4.2 | 2.4 | 3.7 |  |  |  |  |  | 
C=C(C)[C@@H]1CC[C@]2(COC(C)=O)CC[C@]3(C)C(CCC4[C@@]5(C)CC/C(=N/O)C(C)(C)[C@@H]5CC[C@]43C)[C@@H]12 (stereo partly drawn) [Compound 8, 3-Oxime-28-O-acetyl-betulin] |  |  |  |  |  |  | 10.4 (≈ 20.9 µM) | 5.9 (≈ 11.9 µM) | > 10 | > 10 | 14.1 (≈ 28.3 µM) | > 10
C=C(C)[C@@H]1CC[C@]2(COC(C)=O)CC[C@]3(C)C(CCC4[C@@]5(C)CC[C@H](NC(=O)[C@H](C)[C@@H](OC)C6CCCN6C(=O)OC(C)(C)C)C(C)(C)[C@@H]5CC[C@]43C)[C@@H]12 (stereo partly drawn) [Compound 10, 3-β-Amino-N-(Boc-Dap)-28-O-acetyl-betulin] |  |  |  |  |  |  | > 10 | > 10 | > 10 | > 10 | > 10 | > 10
C=C(C)[C@@H]1CC[C@]2(COC(C)=O)CC[C@]3(C)[C@H](CC[C@@H]4[C@@]5(C)CC[C@H](NC(=O)[C@H](C)[C@@H](OC)[C@@H]6CCCN6C(=O)C[C@@H](OC)[C@H]([C@@H](C)CC)N(C)C(=O)[C@@H](NC(=O)[C@H](C(C)C)N(C)C)C(C)C)C(C)(C)[C@@H]5CC[C@]43C)[C@@H]12 [Compound 11a, 3β-Amino-N-(Dap-Dil-Val-Dov)-28-O-acetyl-betulin] | 10.0 | 4.1 | 3.8 | >10 | 7.0 | 2.5 |  |  |  |  |  | 
C=C(CBr)[C@@H]1CC[C@]2(COC(C)=O)CC[C@]3(C)[C@H](CC[C@@H]4[C@@]5(C)CC[C@H](OC(C)=O)C(C)(C)[C@@H]5CC[C@]43C)[C@@H]12 [Compound 12, 3,28-Di-O-acetyl-30-bromo-betulin] | >10 | >10 | >10 | >10 | >10 | >10 |  |  |  |  |  | 
C=C(CN=[N+]=[N-])[C@@H]1CC[C@]2(COC(C)=O)CC[C@]3(C)C(CCC4[C@@]5(C)CC[C@H](OC(C)=O)C(C)(C)[C@@H]5CC[C@]43C)[C@@H]12 (stereo partly drawn) [Compound 13, 3,28-Di-O-acetyl-30-azido-betulin] |  |  |  |  |  |  | > 10 | > 10 | > 10 | > 10 | > 10 | > 10
C=C(CN)[C@@H]1CC[C@]2(CO)CC[C@]3(C)[C@H](CC[C@@H]4[C@@]5(C)CC[C@H](O)C(C)(C)[C@@H]5CC[C@]43C)[C@@H]12 [Compound 14, 30-Amino-betulin] | 3.0 | 3.1 | 4.2 | 4.0 | 2.9 | 2.1 |  |  |  |  |  | 
C=C(CNC(=O)[C@H](C)[C@@H](OC)[C@@H]1CCCN1C(=O)OC(C)(C)C)[C@@H]1CC[C@]2(CO)CC[C@]3(C)[C@H](CC[C@@H]4[C@@]5(C)CC[C@H](O)C(C)(C)[C@@H]5CC[C@]43C)[C@@H]12 [Compound 15a, 30-N-(Boc-dap)-betulin] | >10 | 9.0 | >10 | >10 | >10 | >10 |  |  |  |  |  | 
